Type in all cases: in vivo
The subject of experiment [1] is Musca domestica Linnaeus adult houseflies. Briefly: Needle inoculum (direct application) on adult flies. The method, then:
(§1) The Solution may be poured into a container having a spray nozzle or provided in an aerosol container. Alternatively, the Solution may be poured into an open container for direct contact. The Solution may be poured directly onto pupa or sprayed. Several experiments were performed on Musca domestica Linnaeus adult houseflies, pupa, and larva using varying dilutions, concentrations, and combinations of components, along with a dihydrogen monoxide control to compare the effectiveness and potency of each composition for quickly killing adult flies, pupa, and larva. […] During experimentation, a needle inoculum (syringe) having a modified composition for adult flies, a spray inoculum having the modified composition for adult flies, and a dihydrogen monoxide control for adult flies were conducted. References to “needle inoculum” refers to directly applying the modified composition to the adult flies.

In experiment [2] the test system is Musca domestica Linnaeus house fly. As to the kind of experiment: Fly killing, general statements (application not specified). Conditions: for independent house fly adulticidal properties of the individual component: individual formula component. The source says:
The concentrations, formulas, and composition noted herein have been evaluated and tested for optimal effect against adult houseflies and pupa. Altering the preferred concentrations would decrease the effectiveness of the inventive Solution, leading to longer a time period before the flies and/or pupa are killed. The Solution may be poured into a container having a spray nozzle or provided in an aerosol container. Alternatively, the Solution may be poured into an open container for direct contact. The Solution may be poured directly onto pupa or sprayed. Several experiments were performed on Musca domestica Linnaeus adult houseflies, pupa, and larva using varying dilutions, concentrations, and combinations of components, along with a dihydrogen monoxide control to compare the effectiveness and potency of each composition for quickly killing adult flies, pupa, and larva. […] These minimal moments of delay between contact and expiration prevents the fly from falling and immediately dying in an undesired location, for example, on a food surface. […] The user can either wait for the fly to die solely from the spray, or, alternatively, the user can implement using the spray as one of the first steps for disabling the fly before immediately killing the fly with either more application of the sprayable composition or with another aid, for example, a fly swatter.
The invention, when sprayed on fly pupa, prevents the pupa from hatching. The preferred type of fly and fly pupa that are effectively killed by this Solution are Musca domestica Linnaeus houseflies. Because the composition (or Solution) is nontoxic, nonabrasive, and ingestible for humans, the Solution can be sprayed or applied directly to a surface, including food. Various experiments were conducted to evaluate the efficacy of each component used in the Solution.

Experiment [3] deals with Musca domestica Linnaeus adult houseflies. As to the kind of experiment: Spray inoculum on adult flies. Particulars: 75° F. The method, then:
as §1

[4] abbreviates: FIG. 30, 50% dilution, same temperature (75° F.).
The mark [5] stands for this setting: FIG. 30, needle inoculum as printed, 0% dilution of 10 mg/mL, 75° F.
Where [6] appears, read: needle inoculum, 0% (no) dilution, 75° F., time in E2/E3.
The mark [7] stands for this setting: needle inoculum, 50% dilution with water, 75° F.
Where [8] appears, read: needle inoculum, 50% dilution with water, 75° F., time in E5/E6.
Setting [9] is: needle inoculum, 75% dilution with water, 75° F.
The mark [10] stands for this setting: needle inoculum, 90% dilution with water, 75° F.
The mark [11] stands for this setting: 50% dilution with water, time in E36/E37.
Where [12] appears, read: printed 50% dilution, in the figure of the 75% dilution experiment.
Where [13] appears, read: needle inoculum, 75% dilution with water, 75° F., 30 minutes.
Setting [14] is: needle inoculum, 90% dilution with water, 75° F., 30 minutes.
Setting [15] is: 90% dilution with water, 30 minutes.
The mark [16] stands for this setting: needle inoculum, no (0%) dilution, 75° F.

Molecules are shown by their SMILES. Some results are limits rather than exact numbers.

Results on four molecules are retold here after US11058113B1, “Fly and pupa insecticide” (Fly's Water, LLC, priority 2018, dated 2021).

In the case of `CCCCC(CC)COC(=O)CC(C(=O)OCC(CC)CCCC)S(=O)(=O)[O-].[Na+]` (centres unmarked) [dioctyl sodium sulfosuccinate], the “deaths of adult flies” value in experiment [1] (setting [4]) is reported as 10 out of 10; in experiment [1] (FIG. 30, 90% dilution) it was 10 out of 10; in experiment [1] (setting [5]) it was 10 out of 10. Also, the “time within which the deaths occurred” value was at most 46 s in experiment [1] (setting [4]); at most 188 s in experiment [1] (FIG. 30, 90% dilution); at most 36 s in experiment [1] (setting [5]). Moreover, in experiment [2] (flies), the “time within which flies are immobilized and collapse” value was 30 to 60 s.
Take `CCCCC(CC)COC(=O)CC(C(=O)OCC(CC)CCCC)S(=O)(=O)[O-].[Na+]` (centres unmarked) [docusate, docusate sodium]: the “deaths of adult flies” value in experiment [1] (setting [6]) is 10 out of 10; in experiment [1] (setting [8]) it was 10 out of 10; in experiment [1] (needle inoculum, 75% dilution with water, 75° F., time in E8/E9) it was 10 out of 10; in experiment [1] (needle inoculum, 90% dilution with water, 75° F., time in E11) it was 10 out of 10; in experiment [1] (needle inoculum, 95% dilution with water, 75° F., time in E13), 10 out of 10; in experiment [1] (needle inoculum, 99% dilution with water, 75° F., time in E15), 10 out of 10. Moreover, the “deaths of adult flies” value was 10 out of 10 in experiment [3] (setting [11]); 10 out of 10 in experiment [3] (90% dilution with water, time in E42/E43); 10 out of 10 in experiment [3] (95% dilution with water, time in E45); 10 out of 10 in experiment [3] (99% dilution with water, time in E47); 10 out of 10 in experiment [3] (no dilution, time in E33/E34); 10 out of 10 in experiment [3] (printed 50% dilution, in the figure of the 75% dilution experiment, time in E39/E40). The “time within which the deaths occurred” value in experiment [1] (needle inoculum, 0% dilution, 75° F.) is at most 48 s; in experiment [1] (setting [7]) it was at most 56 s; in experiment [1] (setting [9]), at most 126 s; in experiment [1] (setting [10]), at most 121 s; in experiment [3] (50% dilution with water), at most 43 s; in experiment [3] (90% dilution with water) it was at most 143 s. Also, the “time within which the deaths occurred” value in experiment [3] (no dilution) was at most 68 s; in experiment [3] (setting [12]) it was at most 89 s. The “independent house fly adulticidal properties of the individual component” value in experiment [2] is on record as “exhibit varying house fly adulticidal properties”.
For `CCO` [ethyl alcohol], the “deaths of adult flies” value in experiment [1] (setting [6]) was 10 out of 10; in experiment [1] (setting [8]), 10 out of 10; in experiment [3] (setting [11]), 10 out of 10; in experiment [3] (no dilution, time in E33/E34), 10 out of 10. In addition, the “flight ability during the observation time” value was “incapable of flight” in experiment [1] (setting [7]); “incapable of flight” in experiment [1] (setting [13]); “incapable of flight” in experiment [1] (setting [14]); “incapable of flight” in experiment [3] (75% dilution with water, 30 minutes); “incapable of flight” in experiment [3] (setting [15]); “incapable of flight” in experiment [3] (no dilution). Also, the “deaths of adult flies within 30 minutes” value in experiment [1] (setting [9]) is reported as 1 out of 10; in experiment [1] (setting [10]), 0 out of 10; in experiment [3] (75% dilution with water), 4 out of 10; in experiment [3] (90% dilution with water), 1 out of 10.
As to `OCC(O)CO` [glycerin], the “flight ability during the observation time” value in experiment [1] (setting [7]) was “incapable of flight”; in experiment [1] (setting [13]) it was “incapable of flight”; in experiment [1] (setting [14]) it was “incapable of flight”; in experiment [1] (setting [16]), “incapable of flight”; in experiment [3] (50% dilution, 30 minutes), “incapable of flight”; in experiment [3] (setting [15]) it was “incapable of flight”. The “flight ability during the observation time” value is reported as “incapable of flight” in experiment [3] (no dilution) and “incapable of flight” in experiment [3] (printed 50% dilution, in the figure of the 75% dilution experiment, 30 minutes). In addition, the “deaths of adult flies within 30 minutes” value in experiment [1] (setting [7]) is listed as 5 out of 10; in experiment [1] (setting [9]), 4 out of 10; in experiment [1] (setting [10]), 2 out of 10; in experiment [1] (setting [16]) it was 0 out of 10; in experiment [3] (50% dilution), 6 out of 10; in experiment [3] (90% dilution with water), 7 out of 10. For the same molecule, the “deaths of adult flies within 30 minutes” value is given as 0 out of 10 in experiment [3] (no dilution) and 6 out of 10 in experiment [3] (setting [12]). Also, the “independent house fly adulticidal properties of the individual component” value in experiment [2] was “exhibit varying house fly adulticidal properties”.
